One data set deals with TNF-α. In words: Immunoblot of TNF-α expression in placental tissue. The format is in vivo. The conditions noted are these: DMA rescued mice vs LPS-triggered PTB mice, p<0.001. An excerpt: (§1) The probe was thoroughly cleaned after each sample.
(§2) Chemifluorescence was detected by exposure to an autoradiography film.

A further data set deals with IL-1β. Description: Immunoblot of IL-1β expression in placental tissue. The format is in vivo. To be noted: DMA rescued mice vs LPS-triggered PTB mice, p<0.01.
Excerpt: as §1, §2

A further data set relates to LPS-triggered PTB. To be noted: for Number of pups retained / Number of pups dropped: 50 mg/kg LPS. As to the method: Mice were then randomly assigned to the control group or one of five treatment groups. […] Additionally, a sixth group of four animals received i.p. injections of 0.5 ml PBS in lieu of LPS at the same time points and served as sham (Table 1).
After the injection at t=10 hours, mice were continually monitored; time of delivery of the first pup and number of pups dropped over time were recorded. […] All mice were sacrificed by carbon dioxide asphyxiation. The mice were autopsied at the end of experiments to confirm pregnancy and to determine the number of pups retained in utero. Placenta and uteri were harvested and stored.

A further data set has as its system IL-6. In words: Immunoblot of IL-6 expression in placental tissue. The format is in vivo. The conditions noted are these: DMA rescued mice vs LPS-triggered PTB mice, p<0.05.
Excerpt: as §1, §2
For orientation: A western blot detects proteins with antibodies after separation by electrophoresis.

The conditions of data set [1]: rats, cited from earlier work.
In data set [2] the test system is P450-dependent monooxygenase or phase II enzyme activities. The conditions noted are these: rat; cited from earlier work.

Entries after “also recorded” stand apart in the source; their conditions may differ. Like-named read-outs stand apart in the source and are kept apart here. Marks after values point to notes of the source that are not given here.

Turning to `CC(=O)N(C)C` [DMA, N,N-dimethylacetamide], the “TNF-α expression in placentas” value with TNF-α is reported as “suppressed”. Moreover, the “IL-1β expression in placentas” value with IL-1β is “significantly reduced; also recorded: suppressed”. For the same molecule, the “Number of pups retained” value is listed as 35 in the data set on LPS-triggered PTB (DMA 0.2 mg/kg); 41 in the data set on LPS-triggered PTB (DMA 0.39 mg/kg); 69 in the data set with LPS-triggered PTB (DMA 0.78 mg/kg); 47 with LPS-triggered PTB (DMA 1.56 mg/kg); 52 with LPS-triggered PTB (DMA 3.1 mg/kg). Further, the “Number of pups dropped” value is 12 in the data set with LPS-triggered PTB (DMA 0.2 mg/kg, n=47 pups); 0*** in the data set on LPS-triggered PTB (DMA 1.56 mg/kg, n=47 pups); 0*** in the data set on LPS-triggered PTB (DMA 3.1 mg/kg, n=52 pups). The “Prevention of PTB” value in the data set with LPS-triggered PTB (highest doses of DMA, 3.1 and 1.56 mg/kg) came to 100%. Also, the “IL-6 expression in placentas” value in the data set with IL-6 is given as “suppressed”.
Take `CNC(C)=O` [MMA, N-monomethylacetamide]: the Plasma level result in data set [1] (after 24 hours) is listed as “a significant amount of MMA was still present”. Also, the Plasma half life entry in data set [1] is reported as “about 2.2 hours”. In addition, the “Induction of hepatic monooxygenases” value in data set [2] is “did not induce any hepatic monooxygenases”.

These data come from US11717499B2 (priority 2011, dated 2023).
